In patent publication US20250042909A1, “POLYMORPH FORMS OF A 5H-PYRROLO[2,3-b]PYRAZINE DERIVATIVE, METHODS OF PREPARATION, AND USES THEREFORE” (BeiGene, Ltd., priority 2022, published 2025):
Counter-ions that a name gives are not always drawn. Values belong to the compound of their own block, whether it stands above or below them.

Columns and labels:
[1] = Solid-state chemical and physical stability under stress and storage conditions; format: physicochemical; settings: for Chemical and physical stability: 25° C./92% RH open, 40° C./75% RH open, 60° C. tight container, over 1 week
Experimental: Solid form stability of freeform Type A was investigated in process solvents EtOH/H2O and MeOH/H2O. […] Purity change in all the rest conditions (40° C./75% RH/open for 2 weeks, 60° C./sealed for 10 days, RT/92.5% RH/open for 10 days, 25° C./60% RH/open for 8 weeks and UV (290 wμ/cm2) for 3 days) was less than 0.4 area %. […]

[2] = Dynamic vapor sorption (DVS) hygroscopicity test; format: physicochemical; settings: for Hygroscopicity: DVS at 25° C.
Experimental: Dynamic vapor sorption (DVS) analysis was conducted using SMS DVS Intrinsic using one of below methods:
(§1) Sample was weighted to the microbalance. The relative humidity was set to 0% with N2 flow of 200 sccm. The equilibrium was assumed when the weight change of the sample was <0.001 wt % in 10 min or by a maximum equilibration time of 180 minutes. […] Between two equilibrium steps, dm/dt is 0.002%/min. At each equilibrium step, the equilibrium was assumed when the weight change of the sample was <0.001 wt % in 10 min or by a maximum equilibration time of 180 minutes.
as §1, with “the closes decile of ambient humidity” for “0%”
as §1, with “40%” for “0%”, “60” for “10”, “360” for “180”

[3] = Pharmacokinetic studies in rats; format: in vivo, male SD rats; settings: for AUC(0-t): read-out: AUC0-24h
Experimental: (§2) Pharmacokinetic studies of Compound A were conducted in male SD rats (Vital River, 8 weeks, 3 animals per dosing route) following Institutional Animal Care and Use Committee guidelines. Intravenous administration was formulated as 1.0 mg/mL solution in N,N-dimethylacetamide:30% solutol HS-15(w/v):saline=20:20:60 (V:V:V). Oral administration was formulated as 1.0 mg/mL suspension in 0.5% methyl cellulose. Blood samples were collected over a 24-h period post-dose. Plasma was isolated and processed with the below protocol: To an aliquot of 10 μL plasma was added 200 μL ACN containing 5 ng/mL terfenadine as internal standard. The mixture was vortexed for 1 min and centrifuged at 4000 rpm for 10 min. An aliquot of 50 μL supernatant was diluted with 150 μL acetonitrile/water. The concentration of Compound A was determined by LC-MS-MS. Non-compartmental pharmacokinetic analysis was performed on the concentration-time data.

[4] = Pharmacokinetic studies in mice; format: in vivo, male CD-1 mice; settings: for AUC(0-t): male, CD-1, mouse, plasma, read-out: AUC0-24h
Experimental: Compound A free form amorphous (115.7 mg) was prepared by lyophilizing a suspension of compound A free form in water with a minimum amount of acetonitrile.
as §2, with “in male CD-1 mice (Vital River,” for “in male SD rats (Vital River,”, “formulated as 0.20 mg/mL solution” for “formulated as 1.0 mg/mL solution”, “N,N-dimethylacetamide:30% solutol HS-15(w/v): saline=20:20:60 (V:V:V). Oral” for “N,N-dimethylacetamide:30% solutol HS-15(w/v):saline=20:20:60 (V:V:V). Oral”, “suspension in 0.500 methyl cellulose.” for “suspension in 0.5% methyl cellulose.”, “for 1 m and centrifuged” for “for 1 min and centrifuged”

[5] = Solid form stability in process solvents; format: physicochemical; settings: MeOH at 50° C.
Experimental: Solid form stability of freeform Type A was investigated in process solvents EtOH/H2O and MeOH/H2O. […] Purity change in all the rest conditions (40° C./75% RH/open for 2 weeks, 60° C./sealed for 10 days, RT/92.5% RH/open for 10 days, 25° C./60% RH/open for 8 weeks and UV (290 wμ/cm2) for 3 days) was less than 0.4 area %.

[6] = PO Dose 10 mpk calculated as free form, 10 mg/kg
[7] = male, SD, rat, plasma, po, 10 mg/kg, PO Dose 10 mpk calculated as free form

SMILES: Cc1cc(-c2c[nH]c3ncc(-c4cc(C)c5c(c4)CCN(C)C5)nc23)ccc1C(=O)N(C)C [Citrate Type B, 4-[2-(2,8-dimethyl-1,2,3,4-tetrahydroisoquinolin-6-yl)-5H-pyrrolo[2,3-b]pyrazin-7-yl]-N,N,2-trimethylbenzamide]
Form conversion on storage ([1]; ambient and open conditions (about 25° C. and about 80% RH) over 1 week): converted to Type A

SMILES: Cc1cc(-c2c[nH]c3ncc(-c4cc(C)c5c(c4)CCN(C)C5)nc23)ccc1C(=O)N(C)C [Compound A citrate type A, 4-[2-(2,8-dimethyl-1,2,3,4-tetrahydroisoquinolin-6-yl)-5H-pyrrolo[2,3-b]pyrazin-7-yl]-N,N,2-trimethylbenzamide]
Form change after the DVS test [2]: No form change
Hygroscopicity ([2]; listed as citrate salt type A): slightly hygroscopic
Water absorbed (DVS) ([2]; from 0% RH to 95% RH at 25° C.): about 0.7%
Long-term stability ([1]; 3-month experiment): excellent long-term stability
Chemical and physical stability [1]: chemically and physically stable
AUC0-24h [3, 6]: 1603 ng·h/mL
Cmax [3, 6]: 445 ng/mL
F % [3, 6]: 24.4%
tmax [3, 6]: 2.67 h
AUC0-24h [4, 6]: 2990 ng·h/mL
Cmax [4, 6]: 640 ng/mL
F % [4, 6]: 86.9%
t1/2 [4, 6]: 7.95 h
tmax [4, 6]: 1.50 h

SMILES: Cc1cc(-c2c[nH]c3ncc(-c4cc(C)c5c(c4)CCN(C)C5)nc23)ccc1C(=O)N(C)C [Compound A free form amorphous, 4-[2-(2,8-dimethyl-1,2,3,4-tetrahydroisoquinolin-6-yl)-5H-pyrrolo[2,3-b]pyrazin-7-yl]-N,N,2-trimethylbenzamide]
half-life ([3]; male, SD, rat, plasma, 10 mg/kg, PO Dose 10 mpk calculated as free form): 4.05 h
AUC(0-t) ([3]; male, SD, rat, plasma, iv, 1 mg/kg, IV Dose 1 mpk calculated as free form): 656 ng·h/mL
bioavailability [3, 7]: 17.2%
AUC(0-t) [3, 7]: 1120 ng·h/mL
Cmax ([3]; male, SD, rat, plasma, po, 10 mg/kg, PO Dose 10 mpk calculated as free form, read-out: Cmax): 235 ng/mL
tmax ([3]; male, SD, rat, plasma, po, 10 mg/kg, PO Dose 10 mpk calculated as free form, read-out: tmax): 2 h
Cmax [4, 6]: 177 ng/mL
F % [4, 6]: 55.2%
t1/2 [4, 6]: 3.63 h
tmax [4, 6]: 3.50 h
AUC(0-t) ([4]; iv, 1 mg/kg, IV Dose 1 mpk calculated as free form): 344 ng·h/mL
AUC(0-t) ([4]; po, 10 mg/kg, PO Dose 10 mpk calculated as free form): 1900 ng·h/mL

More lines, now with the values ahead:

Form change after the DVS test [2]: No form change
Hygroscopicity ([2]; listed as L-malate salt Pattern A): hygroscopic
Water absorbed (DVS) ([2]; from 40% RH to 95% RH at 25° C.): about 7.9%
Chemical and physical stability [1]: chemically and physically stable
SMILES: Cc1cc(-c2c[nH]c3ncc(-c4cc(C)c5c(c4)CCN(C)C5)nc23)ccc1C(=O)N(C)C [L-malate salt Type A, 4-[2-(2,8-dimethyl-1,2,3,4-tetrahydroisoquinolin-6-yl)-5H-pyrrolo[2,3-b]pyrazin-7-yl]-N,N,2-trimethylbenzamide]

Form change in process solvent [5]: No form change
HPLC area purity change ([1]; 40° C./75% RH/open 2 weeks, 60° C./sealed 10 days, RT/92.5% RH/open 10 days, 25° C./60% RH/open 8 weeks, UV 3 days): less than 0.4 area %
HPLC area purity decrease ([1]; Vis (10000 Lux) for 5 days): ~1.2 area %
Form change (physical stability) ([1]; under the laboratory conditions): No form change
SMILES: Cc1cc(-c2c[nH]c3ncc(-c4cc(C)c5c(c4)CCN(C)C5)nc23)ccc1C(=O)N(C)C [freeform Type A, 4-[2-(2,8-dimethyl-1,2,3,4-tetrahydroisoquinolin-6-yl)-5H-pyrrolo[2,3-b]pyrazin-7-yl]-N,N,2-trimethylbenzamide]
